Results: ChEMBL document CHEMBL3797049, “Development of a competitive binding assay for the Burkholderia cenocepacia lectin BC2L-A and structure activity relationship of natural and synthetic inhibitors” (Medchemcomm, 2016)
The source made the active and inactive calls. The calls are words filed in the database; no cut-off is given here.

What was measured:
[1] = biological target: T1, Lectin (Burkholderia cenocepacia (strain ATCC BAA-245 / DSM 16553 / LMG 16656/ NCTC 13227 / J2315 / CF5610) (Burkholderia cepacia (strain J2315)), UniProt B4EH87); test: Displacement of N-(fluorescein-5-yl)-N'-(alpha-D-mannopyranosyloxyethyl)-thiocarbamide from Burkholderia cenocepacia J2315 BC2L-A expressed in Escherichia coli BL21 (DE3) cells incubated for 3 to 4 hrs by fluorescence polarization assay
T1 sequence (B4EH87 whole entry): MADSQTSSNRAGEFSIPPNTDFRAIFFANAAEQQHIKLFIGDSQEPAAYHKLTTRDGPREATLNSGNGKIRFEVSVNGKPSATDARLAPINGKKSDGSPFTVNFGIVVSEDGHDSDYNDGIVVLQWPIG

[2] = biological target: T2, Lectin (Burkholderia cenocepacia (strain ATCC BAA-245 / DSM 16553 / LMG 16656/ NCTC 13227 / J2315 / CF5610) (Burkholderia cepacia (strain J2315))) (UniProt B4EH87); test: Displacement of N-(fluorescein-5-yl)-N'-(alpha-D-mannopyranosyloxyethyl)-thiocarbamide from Burkholderia cenocepacia J2315 BC2L-A expressed in Escherichia coli BL21 (DE3) cells up to 666 uM incubated for 3 to 4 hrs by fluorescence polarization assay relative to control
T2 sequence (whole entry): T1 sequence (B4EH87 whole entry)

[3] = Displacement of N-(fluorescein-5-yl)-N'-(alpha-L-fucopyranosyl-O-ethyl)-thiocarbamide from Pseudomonas aeruginosa LecB expressed in Escherichia coli BL21 (DE3) cells up to 666 uM incubated for 6 hrs by fluorescence polarization assay
[4] = biological target: T1, Lectin (Burkholderia cenocepacia (strain ATCC BAA-245 / DSM 16553 / LMG 16656/ NCTC 13227 / J2315 / CF5610) (Burkholderia cepacia (strain J2315)), UniProt B4EH87); test: Binding affinity to Burkholderia cenocepacia J2315 BC2L-A expressed in Escherichia coli BL21 (DE3) cells
[5] = biological target: T1, Lectin (Burkholderia cenocepacia (strain ATCC BAA-245 / DSM 16553 / LMG 16656/ NCTC 13227 / J2315 / CF5610) (Burkholderia cepacia (strain J2315)), UniProt B4EH87); test: Binding affinity to Burkholderia cenocepacia J2315 BC2L-A expressed in Escherichia coli BL21 (DE3) cells by isothermal titration calorimetry
[6] = biological target: T1, Lectin (Burkholderia cenocepacia (strain ATCC BAA-245 / DSM 16553 / LMG 16656/ NCTC 13227 / J2315 / CF5610) (Burkholderia cepacia (strain J2315)), UniProt B4EH87); test: Binding affinity to Burkholderia cenocepacia J2315 BC2L-A expressed in Escherichia coli BL21 (DE3) cells by microcalorimetry

Row | SMILES | inhibition [2] | IC50 [1] | further results
1 | C=CCO[C@H]1O[C@H](CO)[C@@H](O)[C@H](O)[C@@H]1O | – | 13.6 µM | –
2 | CO[C@H]1O[C@H]([C@H](O)CNC(=O)/C=C/c2ccccc2)[C@@H](O)[C@H](O)[C@@H]1O | inactive | – | –
3 | CO[C@H]1O[C@H]([C@@H](O)CNC(=O)c2ccccc2)[C@@H](O)[C@H](O)[C@@H]1O | – | 104 µM | –
4 | CO[C@H]1O[C@@H](C)[C@@H](O)[C@@H](O)[C@@H]1O | inactive | – | –
5 | Cc1cc(=O)oc2cc(O[C@@H]3O[C@H](CO)[C@@H](O)[C@H](O)[C@@H]3O)ccc12 | – | 7.4 µM | –
6 | CO[C@H]1O[C@H]([C@@H](O)CNC(=O)/C=C/c2ccccc2)[C@@H](O)[C@H](O)[C@@H]1O | – | 64 µM | –
7 | CO[C@H]1O[C@H]([C@@H](O)CNC(C)=O)[C@@H](O)[C@H](O)[C@@H]1O | – | 116 µM | –
8 | OC[C@H]1OC[C@@H](O)[C@@H](O)[C@@H]1O | – | 2.9 µM | –
9 | Cc1cc(=O)oc2cc(O[C@H]3O[C@H](CO)[C@@H](O)[C@H](O)[C@@H]3O)ccc12 | – | 14.5 µM | –
10 | C[C@H](O)[C@@H](O)[C@@H](O)[C@H](O)C=O [L-FUCOSE] | – | 498 µM | IC50 [4]: 2300 µM
11 | C[C@@H]1O[C@H](CO)[C@@H](O)[C@H](O)[C@@H]1O | – | 13 µM | –
12 | CO[C@H]1O[C@H]([C@@H](O)CNS(=O)(=O)c2ccc(C)cc2)[C@@H](O)[C@H](O)[C@@H]1O | – | 19.1 µM | –
13 | CO[C@H]1OC(C(O)CO)C(O)C(O)C1O (stereo not given in full) | – | – | Kd [5]: 54 µM
14 | CO[C@H]1O[C@H]([C@@H](O)CNS(=O)(=O)c2c(C)cc(C)cc2C)[C@@H](O)[C@H](O)[C@@H]1O | – | 13.8 µM | –
15 | CO[C@H]1O[C@H](CO)[C@@H](O)[C@H](O)[C@@H]1O | – | 7 µM | Kd [6]: 2.7 µM
16 | CO[C@@H]1O[C@@H](C)[C@@H](O)[C@@H](O)[C@@H]1O | inactive | – | –

Continued, in another order:

Row | inhibition [2] | SMILES | IC50 [1] | further results
17 | inactive | OC[C@H]1OC(O)[C@@H](O)[C@@H](F)[C@@H]1O (stereo not given in full) | – | inhibition [3]: inactive
18 | inactive | CO[C@H]1O[C@H](CCl)[C@@H](O)[C@H](O)[C@@H]1O | – | –
19 | inactive | OC[C@H]1OC(O)[C@@H](F)[C@@H](O)[C@@H]1O (stereo not given in full) | – | inhibition [3]: inactive
20 | 56% | C=CCO[C@H]1O[C@H](CO)[C@@H](O)[C@H](OC)[C@@H]1O | – | inhibition [3]: inactive
21 | inactive | CO[C@H]1O[C@H](CBr)[C@@H](O)[C@H](O)[C@@H]1O | – | –
22 | inactive | C[C@@H]1OC[C@@H](O)[C@H](O)[C@@H]1O | – | –
23 | inactive | CO[C@H]1O[C@H]([C@H](O)CNC(=O)c2ccccc2)[C@@H](O)[C@H](O)[C@@H]1O | – | –
24 | inactive | C[C@@H]1O[C@H](C)[C@@H](O)[C@H](O)[C@@H]1O | – | –
25 | inactive | CO[C@H]1O[C@H](CN)[C@@H](O)[C@H](O)[C@@H]1O | – | –
26 | inactive | CO[C@H]1O[C@H](CI)[C@@H](O)[C@H](O)[C@@H]1O | – | –
27 | inactive | C[C@@H]1OC[C@@H](F)[C@H](O)[C@@H]1O | – | inhibition [3]: inactive
28 | inactive | C=CCO[C@H]1O[C@H](CO)[C@@H](OC)[C@H](O)[C@@H]1O | – | inhibition [3]: inactive
